How the values were obtained:
Assay type in all cases: in vivo, Wistar rats
TNFα = test: Level of TNFα in the serum of rats with rheumatoid arthritis (ELISA); conditions: four weeks after booster immunization; model group 14 ng/L, normal group 9.8 ng/L
Experimental: (§1) MRS liquid media (containing 0.05 g/100 mL cysteine) were respectively inoculated with the B. breve CCFM1078 obtained in Example 1 and LGG and anaerobically cultured at 37° C. for 18 h, and then transferred into fresh MRS liquid media (containing 0.05 g/100 mL cysteine) and cultured at same conditions for 24 h. Bacteria were centrifuged at 6000 g for 15 min, washed with 0.9 g/100 mL normal saline, and centrifuged again at 6000 g for 10 min to obtain the bacteria. The bacteria of the B. breve CCFM1078 and the LGG were resuspended to a cell concentration of 5×10^9 CFU/mL with sterile normal saline with a concentration of 0.9 g/100 mL, and bacterial solutions containing the B. breve CCFM1078 and the LGG were obtained.
(§2) 60 7-week-old SPF (Specific Pathogen Free) female Wistar rats were raised at a room temperature of 22-24° C., a humidity of 40-60%, and an alternation of 12 h/12 h day and night. After being raised for 1 week under the condition of ad libitum, the rats were randomly divided into 5 groups with 12 rats in each group. […]
(§3) Four weeks after the booster immunization, blood was collected and the rats were sacrificed. The rat serum was collected, and the levels of IL-1β and TNFα in the serum of the rats in each group were determined by an ELISA kit.

IL-10 = test: Level of IL-10 in the serum of rats with rheumatoid arthritis (ELISA); conditions: four weeks after booster immunization; model group 1.64 ng/L, normal group 1.59 ng/L
Experimental: as §1
as §2, with “Sixty 7-week-old” for “60 7-week-old”
Four weeks after the booster immunization, blood was collected and the rats were sacrificed. The rat serum was collected, and the level of IL-10 in the serum of the rats in each group were determined by an ELISA kit.

[1] = tested on: rats with rheumatoid arthritis (type II collagen-induced arthritis model); test: Body weight, joint thickness and clinical score of rats with type II collagen-induced arthritis; conditions: CIA rats
Experimental: A Type II Collagen-induced arthritis (CIA) model is a classic RA animal model. The onset of CIA has many similarities with rheumatoid arthritis (RA), such as synovial hyperplasia, pannus formation, and cartilage destruction. At present, […]. Therefore, in Examples 5-9, a type II collagen-induced arthritis (CIA) model was used as an RA animal model, and LGG was used as a control.
as §1
60 7-week-old SPF (Specific Pathogen Free) female Wistar rats were raised at a room temperature of 22-24° C., a humidity of 40-60%, and an alternation of 12 h/12 h day and night. […]

[2] = Content of short-chain fatty acids in the feces of rats with rheumatoid arthritis (GCMS); conditions: four weeks after booster immunization
Experimental: as §1
(§4) Sixty 7-week-old SPF (Specific Pathogen Free) female Wistar rats were raised at a room temperature of 22-24° C., a humidity of 40-60%, and an alternation of 12 h/12 h day and night. After being raised for 1 week under the condition of ad libitum, the rats were randomly divided into 5 groups with 12 rats in each group. The 5 groups were a normal group, a model group, a drug group administered with methotrexate by gavage, an LGG group administered with LGG by gavage, and a CCFM1078 group administered with B. breve CCFM1078 by gavage.
The experiment was started after the rats were adaptively raised for one week, and lasted for eight weeks. During the two weeks before modelling, each rat in the normal group, the drug group and the model group was administered by gavage with 1.5 mL of sterile normal saline with a concentration of 0.9 g/100 mL per day, each rat in the LGG group was administered by gavage with 1.5 mL of an LGG bacterial solution with a concentration of 5×10^9 CFU/mL per day, and each rat in the CCFM1078 group was administered by gavage with 1.5 mL of a B. breve CCFM1078 bacterial solution with a concentration of 5×10^9 CFU/mL per day. The third week to the fourth week was a modelling period. On the first day of modelling, a bovine type II collagen solution (Chondrex, 20022) and a Freund's incomplete adjuvant (Chondrex, 7002) were mixed in equal volumes and emulsified to form a complete emulsion (the emulsion was prepared for immediate use, and the prepared emulsion was used within 1 h). A rat was anesthetized with isoflurane and immobilized, the whole rat tail root was disinfected with 75% (v/v) alcohol, and then the rat was subjected to primary immunization. In the primary immunization, 0.15 mL of the complete emulsion was accurately pipetted and injected subcutaneously at 1.5 cm from the tail root of the rat. One week later, booster immunization was conducted by the same treatment method, that is, 0.15 mL of the complete emulsion was accurately pipetted and injected subcutaneously at 2.0 cm from the tail root of the rat. The rats in the normal group were injected with only the same volume of sterile normal saline by the same method. […]

Th17 cells = test: Proportion of Th17 cells in the mesenteric lymph nodes of rats with rheumatoid arthritis (flow cytometry); conditions: four weeks after booster immunization; model group 13.97 times the normal group
Experimental: as §1, §4
The experiment was started after the rats were adaptively raised for one week, and lasted for eight weeks. […]

IL-1β = test: Level of IL-1β in the serum of rats with rheumatoid arthritis (ELISA); conditions: four weeks after booster immunization; model group 835 ng/L, normal group 143 ng/L
Experimental: as §1, §2, §3

## CN(Cc1cnc2nc(N)nc(N)c2n1)c1ccc(C(=O)N[C@@H](CCC(=O)O)C(=O)O)cc1 [methotrexate, Methotrexate]
TNFα
  level of TNFα in the serum: 12 ng/L
IL-10
  concentration of IL-10 in the serum: 1.62 ng/L
[1]; FIG. 3
  paw thickness (comparison in words): significantly lower than that of the rats in the model group and restored to normal in the last week
[1]; gavage, after booster immunization, FIG. 2
  body weight change (trend): not significant
[2]
  content of acetic acid in the feces relative to the model group: 1.1 times
  content of butyric acid in the feces relative to the model group: 1.3 times
  content of isobutyric acid in the feces relative to the model group: 1.3 times
  content of pentanoic acid in the feces relative to the model group: 1 times
  content of propionic acid in the feces relative to the model group: 1.2 times
Th17 cells
  proportion of Th17 cells in the mesenteric lymph nodes relative to the model group: 12.7%
IL-1β
  level of IL-1β in the serum: 159 ng/L

From US12285448B2, “Bifidobacterium breve capable of relieving rheumatoid arthritis and application thereof” (Jiangnan University, priority 2020, dated 2025)
